Where “and” joins values, the source holds several entries; their conditions need not be identical. Equal values may be shown once.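 Values below derive from 48-hour exposures of cells grown in 96-well plates, with endpoints linearly interpolated between the two concentrations bracketing the appropriate inhibition level. Abbreviation: GI50, concentration required for 50% inhibition of growth. At the TGI there is no net growth.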
System: MDA-MB-468 breast
Test: NCI anticancer screen, dose series, 48 h

## COc1ccc(-c2ccc(-c3ccc(C(=N)N)cn3)s2)cc1Cl
  GI50: 1.57 µM
  TGI: 3.15 µM

## COc1ccc2c(c1)OC13Oc4cc(OC)ccc4C=C1CCCC3=C2
  GI50: > 100 µM
  TGI: > 100 µM

## CC/C=C\CCC/C=C1/C(=O)C=C[C@@H]1C/C=C\CCCC(=O)O
  GI50: 4.61 µM
  TGI: 18.7 µM

## CCNCCNc1cc(-c2ccc(F)cc2)c(C#N)c2nc3ccccc3n12
  GI50: 1.85 µM
  TGI: 4.12 µM

## COc1ccc(/C=C(\C#N)c2cc3ccccc3n2C)cc1
  GI50: 0.273 µM
  TGI: 1.99 µM

## O=C1/C(=C/c2cccs2)CCC/C1=C\c1cccs1
  GI50: 0.577 µM
  TGI: 14.9 µM

## Oc1ccccc1-n1c(-c2ccccc2)ccc1-c1ccccc1
  GI50: 3.3 µM
  TGI: 15.7 µM

## COc1cc(C2C(C#N)=C(N)OC3=C2C(=O)c2ccccc2C3=O)cc(OC)c1OC (configuration not stated)
  GI50: 2.26 µM
  TGI: 6.64 µM

## COc1ccc(NC(=O)c2cc(OC)c(OC)c(OC)c2)cc1O
  GI50: 0.861 µM
  TGI: 15.8 µM

## N#Cc1nc(-c2ccccc2)oc1S(=O)(=O)N1CCOCC1
  GI50: 2.21 µM
  TGI: 6.21 µM

## CCS/C(Nc1ccccc1)=C(\C#N)C(=O)Nc1ccc(OC)cc1
  GI50: 1.39 µM
  TGI: 7.51 µM

## Oc1c(CN2CCCC2)cc(COCc2ccccc2)c2cccnc12
  GI50: 2.3 µM
  TGI: 6.14 µM

## O=C(/C=C\c1ccnc2ccccc12)c1ccc([N+](=O)[O-])cc1
  GI50: 1.04 µM
  TGI: 9.09 µM

## COc1ccc2c3c(c(OCCCN(C)C)nc2c1)-c1ccc(Cl)cc1C3=O
  GI50: 4.7 µM
  TGI: 19.5 µM

## C#Cc1ccc(NC(=O)c2ccc(/C=C/C(=O)c3nccn3C)cc2)cc1
  GI50: 0.4 µM
  TGI: 0.918 µM

## C=C1C(C)C2C(Cc3ccccc3)NC(=O)C23C(OC(C)=O)/C=C/C(C)(O)CC(C)C/C=C/C3C1O (configuration not stated)
  GI50: 0.199 µM
  TGI: > 100 µM

## CC[C@H](C)[C@H](NC(=O)C12C3C4C1C1C2C3C41NC(C)=O)C(=O)N(C)[C@H](C[C@@H](OC(C)=O)c1nc(C(=O)N[C@@H](Cc2ccccc2)C[C@H](C)C(=O)OC)cs1)C(C)C (some centres not stated)
  GI50: 0.081 µM
  TGI: > 3.98 µM

## CC(=O)N1CC(F)(F)c2c(Sc3ncc(N4CCC5(CC4)COC[C@H]5N)nc3N)cccc21
  GI50: 14.8 µM
  TGI: 50.5 µM

## O=C(Nc1cc(Cl)cc(Cl)c1)Nc1ccc2oc(=O)ccc2c1
  GI50: 2.81 µM
  TGI: 7.45 µM

## CN(C)c1ccc(/C=C/c2ccnc3ccccc23)cc1
  GI50: 0.298 µM
  TGI: 16.9 µM

## CC(C)(C)CC(C)(C)c1ccc(OCCOCCSC(=N)N)cc1
  GI50: 1.59 µM
  TGI: 3.32 µM

## Fc1ccc(-c2ncn(C3CCNCC3)c2-c2ccnc(Oc3cccc(F)c3)n2)cc1
  GI50: 2.61 µM
  TGI: 6.82 µM

## COc1ccccc1-n1c(SCc2cc(OC)c(OC)c(OC)c2)nc2ccc(Cl)cc2c1=O
  GI50: 0.895 µM
  TGI: 8.99 µM

## COc1ccc(C(O)c2cc3c(N)c(C(=O)Nc4cccc(Br)c4)sc3nc2C)cc1 (configuration not stated)
  GI50: 0.0969 µM

## COC(=O)CCC1=C(C)c2cc3[n-]c(cc4nc(cc5[n-]c(cc1n2)c(CCC(=O)OC)c5C)C=C4C)cc3C.[Cd+2]
  GI50: 3.29 µM
  TGI: 12 µM

## C[C@@H]1CC[C@@]2(OC1)O[C@H]1C[C@H]3[C@@H]4CC=C5C[C@@H](O[C@@H]6O[C@H](CO)[C@@H](O[C@@H]7O[C@@H](CO)[C@H](O)[C@H]7O)[C@H](O)[C@H]6O[C@@H]6O[C@@H](C)[C@H](O)[C@@H](O)[C@H]6O)CC[C@]5(C)[C@H]4CC[C@]3(C)[C@H]1[C@@H]2C
  GI50: 0.361 µM
  TGI: 1.45 µM

## O=Nc1c(O)ccc2ccccc12
  GI50: 4.51 µM
  TGI: 25.3 µM

## COc1ccc(/C=C2\N=C3SC=C(N)N3C2=O)cc1
  GI50: 0.291 µM
  TGI: 1.66 µM

## CCSC1=CC(=O)c2ccccc2C1=O
  GI50: 0.18 µM
  TGI: 0.417 µM

## Cn1c(=O)c2[nH]c(COc3ccc(C(C)(C)C)cc3)nc2n(C)c1=O
  GI50: 8.08 µM
  TGI: 72.3 µM

## NC(CSC(c1ccccc1)(c1ccccc1)c1ccc2ccccc2c1)C(=O)O (configuration not stated)
  GI50: 0.045 µM
  TGI: 22.3 µM

## CC#CC(=O)N1CCC[C@H]1c1nc(-c2ccc(C(=O)Nc3ccccn3)cc2)c2c(N)nccn12
  GI50: 19 µM
  TGI: > 76 µM

## C#Cc1nc(/C=C\CCCCCCC(=O)NO)cs1
  GI50: 1.19 µM
  TGI: 3.12 µM

## Cc1nc(NC(=O)N2CCC[C@H]2C(N)=O)sc1-c1ccnc(C(C)(C)C(F)(F)F)c1
  GI50: 0.309 µM and 0.596 µM
  TGI: 6.97 µM and > 10 µM

## CCCC[C@@H](COC(=O)N(Cc1cccs1)Cc1cccs1)NC(=O)N[C@@H](CC(=O)OC)c1ccc2c(c1)OCO2
  GI50: > 100 µM
  TGI: > 100 µM

## c1ccc(-c2nc(N3CCNCC3)c3nc(-c4ccccc4)oc3n2)cc1
  GI50: 1.93 µM
  TGI: 3.66 µM

## O=C(CCN1CCCC1)Nc1ccc2c(NCCCc3ccccc3)c3ccccc3nc2c1
  GI50: 0.477 µM
  TGI: 1.7 µM

## FC(F)(F)c1ccc(-c2cnc(Br)nc2NC2CCCCCC2)cc1
  GI50: 24.9 µM
  TGI: > 100 µM

## CN(Cc1cnc2nc(N)nc(N)c2n1)c1ccc(C(=O)NC(CCC(=O)O)C(=O)O)cc1 (configuration not stated)
  GI50: 0.112 µM
  TGI: > 100 µM

## C[Se]C(=O)CC1=C2C=C(F)C=CC2/C(=C\c2ccc(S(C)=O)cc2)C1C (configuration not stated)
  GI50: 0.134 µM
  TGI: 1.41 µM

## COc1ccc(/C=C\c2cc(OC)c(OC)c(OC)c2)c(NS(=O)(=O)c2ccc(C)cc2)c1O
  GI50: 0.0261 µM
  TGI: 0.711 µM

## O=C(/C=C/c1ccco1)Nc1ncc(Cc2ccc(F)cc2)s1
  GI50: 0.142 µM
  TGI: > 25.2 µM

## Cn1ccnc1C(=O)/C=C/c1ccc(C(=O)Nc2nc3ccccc3[nH]2)cc1
  GI50: 1.29 µM
  TGI: > 25 µM

## O=c1[nH]c(-c2ccc(C(F)(F)F)cc2)nc2c1CSCC2
  GI50: 36.1 µM
  TGI: > 100 µM

From PubChem BioAssay (NCI)
